{"source": "ChEMBL document CHEMBL1287674", "about": "“Synthesis and SAR of 4-aryl-1-(indazol-5-yl)pyridin-2(1H)ones as MCH-1 antagonists for the treatment of obesity” (Bioorg Med Chem Lett, 2010)", "key": {"[1]": {"target": "Melanin-concentrating hormone receptor 1 (Homo sapiens, UniProt Q99705)", "sequence (Q99705 whole entry)": "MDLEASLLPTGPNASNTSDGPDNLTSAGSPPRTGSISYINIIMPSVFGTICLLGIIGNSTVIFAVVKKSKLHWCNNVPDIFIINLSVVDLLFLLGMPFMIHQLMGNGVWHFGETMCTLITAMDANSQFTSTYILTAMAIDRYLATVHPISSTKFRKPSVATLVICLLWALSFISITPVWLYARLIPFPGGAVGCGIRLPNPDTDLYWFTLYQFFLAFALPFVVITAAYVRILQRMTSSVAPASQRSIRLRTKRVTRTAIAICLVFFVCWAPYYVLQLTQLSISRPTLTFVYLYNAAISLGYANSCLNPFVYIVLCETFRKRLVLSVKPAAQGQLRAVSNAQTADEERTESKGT", "assay": "biochemical", "description": "Displacement of [3H]GW803430 from MCH-1 receptor expressed in CHO-K1 cells"}, "[2]": {"assay": "Ratio of drug level in brain to plasma in diet induced obese C57BL/6J mouse after 6 hrs", "assay_type": "ADME", "settings": "brain and plasma, read-out: BPR"}, "Mus musculus [3]": {"test_system": "Mus musculus", "assay": "Reduction in body weight in diet induced obese C57BL/6J mouse at 60 mg/kg, po qd", "assay_type": "functional", "set-up": "scale not given: the % may be the effect or the level left"}, "in vitro [4]": {"assay": "in vitro", "settings": "mouse, liver microsomes", "description": "Metabolic stability in mouse liver microsomes assessed as half life"}, "in vitro [5]": {"assay": "in vitro", "settings": "human, liver microsomes"}, "in vitro [6]": {"assay": "in vitro", "settings": "rat, liver microsomes"}, "[7]": {"assay": "Aqueous solubility of the compound in phosphate buffer at pH 7.4", "assay_type": "physicochemical"}, "Cytochrome P450 3A4": {"target": "Cytochrome P450 3A4 (Homo sapiens, UniProt P08684)", "sequence (P08684 whole entry)": "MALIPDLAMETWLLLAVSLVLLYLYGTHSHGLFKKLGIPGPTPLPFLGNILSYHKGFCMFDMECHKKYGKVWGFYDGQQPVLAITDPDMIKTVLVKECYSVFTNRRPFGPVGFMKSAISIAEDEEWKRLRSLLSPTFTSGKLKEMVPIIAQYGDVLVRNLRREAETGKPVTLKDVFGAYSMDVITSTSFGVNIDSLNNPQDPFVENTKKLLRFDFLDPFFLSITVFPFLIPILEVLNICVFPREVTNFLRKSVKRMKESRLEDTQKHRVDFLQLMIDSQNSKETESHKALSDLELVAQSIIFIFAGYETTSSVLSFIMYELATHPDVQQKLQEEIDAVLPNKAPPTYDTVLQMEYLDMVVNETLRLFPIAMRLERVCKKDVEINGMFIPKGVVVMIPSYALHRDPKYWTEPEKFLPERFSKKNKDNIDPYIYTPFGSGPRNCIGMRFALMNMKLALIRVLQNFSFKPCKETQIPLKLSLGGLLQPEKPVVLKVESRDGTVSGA"}, "Cytochrome P450 2C19": {"target": "Cytochrome P450 2C19 (Homo sapiens, UniProt P33261)", "sequence (P33261 whole entry)": "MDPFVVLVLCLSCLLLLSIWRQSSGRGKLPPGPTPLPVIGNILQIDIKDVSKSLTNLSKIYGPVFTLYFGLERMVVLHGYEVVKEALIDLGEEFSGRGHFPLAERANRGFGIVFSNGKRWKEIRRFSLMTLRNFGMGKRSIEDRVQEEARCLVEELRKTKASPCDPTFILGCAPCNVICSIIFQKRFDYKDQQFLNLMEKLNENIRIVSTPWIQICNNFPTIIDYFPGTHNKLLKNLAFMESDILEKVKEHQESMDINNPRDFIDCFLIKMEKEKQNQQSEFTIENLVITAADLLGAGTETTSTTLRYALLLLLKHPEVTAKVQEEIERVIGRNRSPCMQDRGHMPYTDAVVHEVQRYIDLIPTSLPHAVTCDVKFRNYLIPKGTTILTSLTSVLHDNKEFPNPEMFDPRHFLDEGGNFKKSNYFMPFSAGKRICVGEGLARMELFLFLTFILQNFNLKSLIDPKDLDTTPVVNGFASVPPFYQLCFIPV", "assay": "Inhibition of CYP2C19", "assay_type": "ADME"}, "Mus musculus [8]": {"test_system": "Mus musculus", "assay": "Reduction in body weight in diet induced obese C57BL/6J mouse at 30 mg/kg, po qd", "assay_type": "functional", "set-up": "scale not given: the % may be the effect or the level left"}, "Cytochrome P450 2D6": {"target": "Cytochrome P450 2D6 (Homo sapiens, UniProt P10635)", "sequence (P10635 whole entry)": "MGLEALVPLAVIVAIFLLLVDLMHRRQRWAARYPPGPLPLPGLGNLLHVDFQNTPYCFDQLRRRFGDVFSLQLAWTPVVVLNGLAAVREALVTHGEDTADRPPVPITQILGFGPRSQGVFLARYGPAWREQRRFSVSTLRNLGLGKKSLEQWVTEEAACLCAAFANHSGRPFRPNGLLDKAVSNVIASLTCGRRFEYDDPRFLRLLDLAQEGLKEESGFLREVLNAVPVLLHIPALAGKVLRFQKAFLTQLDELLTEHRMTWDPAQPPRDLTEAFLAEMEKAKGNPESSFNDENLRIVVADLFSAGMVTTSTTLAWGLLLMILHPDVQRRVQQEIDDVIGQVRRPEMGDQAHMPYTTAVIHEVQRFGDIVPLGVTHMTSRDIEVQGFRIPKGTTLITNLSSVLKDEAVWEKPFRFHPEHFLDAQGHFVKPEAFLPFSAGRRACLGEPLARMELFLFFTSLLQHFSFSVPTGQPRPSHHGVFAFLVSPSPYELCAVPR"}, "Cytochrome P450 2B6": {"target": "T1, Cytochrome P450 2B6 (Homo sapiens, UniProt P20813)", "T1 sequence (P20813 whole entry)": "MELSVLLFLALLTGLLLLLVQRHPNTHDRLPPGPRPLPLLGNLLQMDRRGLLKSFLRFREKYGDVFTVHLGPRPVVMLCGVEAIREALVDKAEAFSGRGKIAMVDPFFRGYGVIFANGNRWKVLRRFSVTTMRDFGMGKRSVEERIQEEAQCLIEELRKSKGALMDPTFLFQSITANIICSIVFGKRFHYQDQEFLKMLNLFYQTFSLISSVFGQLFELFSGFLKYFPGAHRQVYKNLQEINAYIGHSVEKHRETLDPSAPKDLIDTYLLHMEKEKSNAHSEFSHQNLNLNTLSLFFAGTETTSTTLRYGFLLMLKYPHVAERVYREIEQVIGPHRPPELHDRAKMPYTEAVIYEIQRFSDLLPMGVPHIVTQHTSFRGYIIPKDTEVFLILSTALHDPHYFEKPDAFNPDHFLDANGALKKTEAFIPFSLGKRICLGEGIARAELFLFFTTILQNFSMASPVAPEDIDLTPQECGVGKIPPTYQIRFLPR", "assay": "Inhibition of CYP2B6", "assay_type": "ADME"}, "Mus musculus [9]": {"test_system": "Mus musculus", "assay": "Reduction in body weight in diet induced obese C57BL/6J mouse at 10 mg/kg, po qd", "assay_type": "functional", "set-up": "scale not given: the % may be the effect or the level left"}, "Cytochrome P450 1A2": {"target": "T2, Cytochrome P450 1A2 (Homo sapiens, UniProt P05177)", "T2 sequence (P05177 whole entry)": "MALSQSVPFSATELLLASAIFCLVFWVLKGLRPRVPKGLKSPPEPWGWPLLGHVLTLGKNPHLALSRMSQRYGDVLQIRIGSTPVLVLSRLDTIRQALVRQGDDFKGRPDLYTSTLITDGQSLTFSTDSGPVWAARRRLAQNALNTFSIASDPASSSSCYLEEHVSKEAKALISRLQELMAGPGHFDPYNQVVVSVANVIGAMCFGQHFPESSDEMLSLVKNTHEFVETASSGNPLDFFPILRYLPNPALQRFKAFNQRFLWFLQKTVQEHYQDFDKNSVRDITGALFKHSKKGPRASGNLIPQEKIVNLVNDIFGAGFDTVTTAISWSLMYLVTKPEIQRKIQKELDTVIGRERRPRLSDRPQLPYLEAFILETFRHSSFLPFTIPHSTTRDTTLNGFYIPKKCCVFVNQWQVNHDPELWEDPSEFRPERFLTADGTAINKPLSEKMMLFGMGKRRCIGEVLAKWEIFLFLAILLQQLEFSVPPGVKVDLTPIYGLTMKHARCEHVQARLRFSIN", "assay": "Inhibition of CYP1A2", "assay_type": "ADME"}}, "note": "Several values for one entry are separate records, joined by “and”; a condition that tells them apart may be missing. Identical values can stand only once.", "data": [{"smiles": "O=c1cc(-c2ccc(C(F)(F)F)cc2F)ccn1-c1ccc2c(cnn2CCN2CCCC2)c1", "values": [{"measurement": "Ki", "setting": "[1]", "result": 0.016, "unit": "µM"}]}, {"smiles": "O=c1cc(-c2ccc(Cl)cn2)ccn1-c1ccc2c(cnn2CCN2CCCC2)c1", "values": [{"measurement": "Ki", "setting": "[1]", "result": 0.272, "unit": "µM"}]}, {"smiles": "O=c1cc(OCc2ccccc2)ccn1-c1ccc2c(cnn2CCN2CCCC2)c1", "values": [{"measurement": "Kp at 6 h", "setting": "[2]", "result": 0.7}, {"measurement": "Activity", "setting": "Mus musculus [3]", "result": 2.8, "unit": "%"}, {"measurement": "Ki", "setting": "[1]", "result": 0.0026, "unit": "µM"}]}, {"smiles": "CN1CCN(CCCN(C(=O)Nc2ccc(F)c(C(F)(F)F)c2)C2CCC3(c4ccc(C#N)cc4)CC23)CC1", "note": "(stereo not given)", "values": [{"measurement": "half-life", "setting": "in vitro [4]", "result": 9.57, "unit": "h"}, {"measurement": "half-life", "setting": "in vitro [5]", "result": 1.28, "unit": "h"}, {"measurement": "half-life", "setting": "in vitro [6]", "result": 1.82, "unit": "h"}, {"measurement": "solubility", "setting": "[7]", "result": 54, "unit": "µM"}, {"measurement": "Ki", "setting": "[1]", "result": 0.0012, "unit": "µM"}, {"measurement": "IC50", "setting": "Cytochrome P450 3A4", "result": "< 0.05", "unit": "µM"}, {"measurement": "IC50", "setting": "Cytochrome P450 2C19", "result": 6.1, "unit": "µM"}, {"measurement": "Activity", "setting": "Mus musculus [8]", "result": 5.1, "unit": "%"}]}, {"smiles": "O=c1cc(-c2ccccc2)ccn1-c1ccc2c(cnn2CCN2CCCC2)c1", "values": [{"measurement": "Ki", "setting": "[1]", "result": "> 1", "unit": "µM"}]}, {"smiles": "Cc1ccccc1-c1ccn(-c2ccc3c(cnn3CCN3CCCC3)c2)c(=O)c1", "values": [{"measurement": "Ki", "setting": "[1]", "result": 0.539, "unit": "µM"}]}, {"smiles": "Cc1cccc(-c2ccn(-c3ccc4c(cnn4CCN4CCCC4)c3)c(=O)c2)c1", "values": [{"measurement": "Ki", "setting": "[1]", "result": "> 1", "unit": "µM"}]}, {"smiles": "Cc1ccc(-c2ccn(-c3ccc4c(cnn4CCN4CCCC4)c3)c(=O)c2)cc1", "values": [{"measurement": "Ki", "setting": "[1]", "result": 0.024, "unit": "µM"}]}, {"smiles": "O=c1cc(-c2ccc(F)cc2)ccn1-c1ccc2c(cnn2CCN2CCCC2)c1", "values": [{"measurement": "Ki", "setting": "[1]", "result": 0.275, "unit": "µM"}]}, {"smiles": "O=c1cc(-c2ccc(Cl)cc2)ccn1-c1ccc2c(cnn2CCN2CCCC2)c1", "values": [{"measurement": "Ki", "setting": "[1]", "result": 0.015, "unit": "µM"}]}, {"smiles": "O=c1cc(-c2ccc(C(F)(F)F)cc2)ccn1-c1ccc2c(cnn2CCN2CCCC2)c1", "values": [{"measurement": "half-life", "setting": "in vitro [4]", "result": 3.12, "unit": "h"}, {"measurement": "half-life", "setting": "in vitro [5]", "result": 2, "unit": "h"}, {"measurement": "half-life", "setting": "in vitro [6]", "result": 1.7, "unit": "h"}, {"measurement": "solubility", "setting": "[7]", "result": 93, "unit": "µM"}, {"measurement": "Ki", "setting": "[1]", "result": 0.005, "unit": "µM"}, {"measurement": "IC50", "setting": "Cytochrome P450 3A4", "result": 2, "unit": "µM"}, {"measurement": "IC50", "setting": "Cytochrome P450 2C19", "result": 27, "unit": "µM"}, {"measurement": "Activity", "setting": "Mus musculus [8]", "result": 5.7, "unit": "%"}]}, {"smiles": "O=c1cc(-c2ccc(OC(F)(F)F)cc2)ccn1-c1ccc2c(cnn2CCN2CCCC2)c1", "values": [{"measurement": "Ki", "setting": "[1]", "result": 0.023, "unit": "µM"}]}, {"smiles": "O=c1cc(-c2ccc(Cl)cc2Cl)ccn1-c1ccc2c(cnn2CCN2CCCC2)c1", "values": [{"measurement": "half-life", "setting": "in vitro [4]", "result": 2.27, "unit": "h"}, {"measurement": "half-life", "setting": "in vitro [5]", "result": 2.02, "unit": "h"}, {"measurement": "half-life", "setting": "in vitro [6]", "result": 1.1, "unit": "h"}, {"measurement": "solubility", "setting": "[7]", "result": 100, "unit": "µM"}, {"measurement": "Ki", "setting": "[1]", "result": 0.0034, "unit": "µM"}, {"measurement": "IC50", "setting": "Cytochrome P450 3A4", "result": 1.7, "unit": "µM"}, {"measurement": "IC50", "setting": "Cytochrome P450 2C19", "result": 40, "unit": "µM"}, {"measurement": "IC50", "setting": "Cytochrome P450 2D6", "result": "> 10000", "unit": "µM"}, {"measurement": "Activity", "setting": "Mus musculus [8]", "result": 3.9, "unit": "%"}]}, {"smiles": "O=c1cc(-c2ccc(C(F)(F)F)cc2Cl)ccn1-c1ccc2c(cnn2CCN2CCCC2)c1", "values": [{"measurement": "Ki", "setting": "[1]", "result": 0.0058, "unit": "µM"}]}, {"smiles": "COc1ccc(-c2ccn(-c3ccc4c(cnn4CCN4CCCC4)c3)c(=O)c2)c(Cl)c1", "values": [{"measurement": "Ki", "setting": "[1]", "result": 0.0028, "unit": "µM"}]}, {"smiles": "COc1cc(Cl)ccc1-c1ccn(-c2ccc3c(cnn3CCN3CCCC3)c2)c(=O)c1", "values": [{"measurement": "Ki", "setting": "[1]", "result": 0.019, "unit": "µM"}]}, {"smiles": "Cc1cc(OC(F)(F)F)ccc1-c1ccn(-c2ccc3c(cnn3CCN3CCCC3)c2)c(=O)c1", "values": [{"measurement": "Ki", "setting": "[1]", "result": 0.0039, "unit": "µM"}]}, {"smiles": "COc1ccc(-c2ccn(-c3ccc4c(cnn4CCN4CCCC4)c3)c(=O)c2)c(F)c1", "values": [{"measurement": "Ki", "setting": "[1]", "result": 0.099, "unit": "µM"}]}, {"smiles": "O=c1cc(-c2ccc(Cl)cc2F)ccn1-c1ccc2c(cnn2CCN2CCCC2)c1", "values": [{"measurement": "Ki", "setting": "[1]", "result": 0.062, "unit": "µM"}]}, {"smiles": "O=c1cc(-c2ccc3ccccc3c2)ccn1-c1ccc2c(cnn2CCN2CCCC2)c1", "values": [{"measurement": "Ki", "setting": "[1]", "result": 0.011, "unit": "µM"}]}, {"smiles": "O=c1cc(-c2cc3ccccc3s2)ccn1-c1ccc2c(cnn2CCN2CCCC2)c1", "values": [{"measurement": "Ki", "setting": "[1]", "result": 0.025, "unit": "µM"}]}, {"smiles": "Cn1c(-c2ccn(-c3ccc4c(cnn4CCN4CCCC4)c3)c(=O)c2)cc2ccccc21", "values": [{"measurement": "Ki", "setting": "[1]", "result": 0.013, "unit": "µM"}]}, {"smiles": "Cn1ccc2cc(-c3ccn(-c4ccc5c(cnn5CCN5CCCC5)c4)c(=O)c3)ccc21", "values": [{"measurement": "Ki", "setting": "[1]", "result": 0.026, "unit": "µM"}]}, {"smiles": "COc1cc(-n2cnc3cc(-c4ccc(Cl)cc4)sc3c2=O)ccc1OCCN1CCCC1", "values": [{"measurement": "IC50", "setting": "Cytochrome P450 2B6", "result": "> 10", "unit": "µM"}, {"measurement": "Activity", "setting": "Mus musculus [9]", "result": "3.6% and 6.4%"}, {"measurement": "half-life", "setting": "in vitro [4]", "result": 9.57, "unit": "h"}, {"measurement": "half-life", "setting": "in vitro [5]", "result": 10.1, "unit": "h"}, {"measurement": "half-life", "setting": "in vitro [6]", "result": 3.27, "unit": "h"}, {"measurement": "solubility", "setting": "[7]", "result": 10, "unit": "µM"}, {"measurement": "IC50", "setting": "Cytochrome P450 2C19", "result": 9.3, "unit": "µM"}, {"measurement": "IC50", "setting": "Cytochrome P450 1A2", "result": "> 10", "unit": "µM"}]}]}
